Results taken from ChEMBL document CHEMBL3232742, “Design, synthesis and evaluation of a cellular stable and detectable biotinylated fumagillin probe and investigation of cell permeability of fumagillin and its analogs to endothelial and cancer cells” (Eur J Med Chem, 2013).
Activity calls are given as the source filed them. The calls are words filed in the database; no cut-off is given here.

Experiments:
HepG2 [1] = test: Antiproliferative against human HepG2 cells assessed as cell viability up to 1000 nM after 96 hrs by MTT assay; format: functional
MCF7 = test: Antiproliferative against human MCF7 cells assessed as cell viability up to 1000 nM after 96 hrs by MTT assay; format: functional
HUVEC [2] = test: Antiproliferative against HUVEC cells assessed as cell viability after 96 hrs by MTT assay; format: functional, cell-based; conditions: Homo sapiens
[3] = Antiproliferative against human Bel7402 cells assessed as cell viability up to 1000 nM after 96 hrs by MTT assay; format: functional, Bel-7402
A549 = test: Antiproliferative against human A549 cells assessed as cell viability up to 1000 nM after 96 hrs by MTT assay; format: functional
HUVEC [4] = test: Stability in HUVEC assessed as compound bound MetAP2 level at 0.1 uM by Western blotting analysis; format: ADME, cell-based; conditions: human
HepG2 [5] = test: Stability in human HepG2 assessed as compound bound MetAP2 level at 0.1 uM by Western blotting analysis; format: ADME, cell-based; conditions: hepg2, 0.1 µM
[6] = molecular target: Methionine aminopeptidase 2 (Homo sapiens) (UniProt P50579); test: Binding affinity to MetAP2 in fumagillin-pretreated HUVEC at 0.1 uM by Western blotting analysis
[7] = molecular target: Methionine aminopeptidase 2 (Homo sapiens) (UniProt P50579); test: Binding affinity to MetAP2 in HUVEC at 0.1 uM by Western blotting analysis
[8] = molecular target: Methionine aminopeptidase 2 (Homo sapiens) (UniProt P50579); test: Binding affinity to MetAP2 in compound pre-treated HUVEC at 0.1 uM after 48 hrs by Western blotting analysis
HepG2 [9] = test: Antiproliferative against human HepG2 cells assessed as cell viability after 96 hrs by MTT assay; format: functional, cell-based; conditions: HepG2, 96 h
[10] = Antiproliferative against human Bel7402 cells assessed as cell viability after 96 hrs by MTT assay; format: functional, cell-based; conditions: Bel-7402, 96 h

Sequence of Methionine aminopeptidase 2 (Homo sapiens) (P50579 2-478 limits assumed): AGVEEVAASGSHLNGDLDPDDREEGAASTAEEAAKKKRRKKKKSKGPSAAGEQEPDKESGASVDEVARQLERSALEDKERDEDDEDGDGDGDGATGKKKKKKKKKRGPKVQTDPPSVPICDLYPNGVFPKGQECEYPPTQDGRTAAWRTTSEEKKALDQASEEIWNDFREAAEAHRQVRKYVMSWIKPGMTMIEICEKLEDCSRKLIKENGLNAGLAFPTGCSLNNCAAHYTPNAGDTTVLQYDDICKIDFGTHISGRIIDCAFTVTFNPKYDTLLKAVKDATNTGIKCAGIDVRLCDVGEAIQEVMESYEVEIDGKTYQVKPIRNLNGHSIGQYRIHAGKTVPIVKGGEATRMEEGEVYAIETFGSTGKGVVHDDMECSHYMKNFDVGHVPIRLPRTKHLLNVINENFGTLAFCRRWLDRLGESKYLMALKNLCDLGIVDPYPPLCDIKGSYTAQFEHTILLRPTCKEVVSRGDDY

SMILES: CO[C@@H]1[C@H](OC(=O)NCCNC(=O)OCCOCCOCCOCCOCCOCCOC(=O)NCCCC[C@@H]2SC[C@@H]3NC(=O)N[C@@H]32)CC[C@]2(CO2)[C@H]1[C@@]1(C)O[C@@H]1CC=C(C)C
- inhibition (INH) (HepG2 [1]): <50%
- inhibition (INH) (MCF7): <50%
- IC50 (HUVEC [2]): 60 nM
- inhibition (INH) [3]: <50%
- inhibition (INH) (A549): <50%
- Stability (HUVEC [4]): Stable
- Stability (HepG2 [5]): Stable

SMILES: CO[C@@H]1[C@H](OC(=O)/C=C/C=C/C=C/C=C/C(=O)O)CC[C@]2(CO2)[C@H]1[C@@]1(C)O[C@@H]1CC=C(C)C [FUMAGILLIN]
- inhibition (INH) (HepG2 [1]): <50%
- inhibition (INH) (MCF7): <50%
- IC50 (HUVEC [2]): 6.6 nM
- inhibition (INH) [3]: <50%
- inhibition (INH) (A549): <50%

SMILES: CO[C@@H]1[C@H](OC(=O)NCCCCCCCCNC(=O)CCCC[C@@H]2SC[C@@H]3NC(=O)N[C@@H]32)CC[C@]2(CO2)[C@H]1[C@@]1(C)O[C@@H]1CC=C(C)C
- inhibition (INH) (HepG2 [1]): <50%
- inhibition (INH) (MCF7): <50%
- Activity [6]: inactive
- IC50 (HUVEC [2]): 9.8 nM
- Activity [7]: Active
- inhibition (INH) [3]: <50%
- inhibition (INH) (A549): <50%
- Activity [8]: inactive

SMILES: COc1cccc2c1C(=O)c1c(O)c3c(c(O)c1C2=O)C[C@@](O)(C(=O)CO)C[C@@H]3O[C@H]1C[C@H](N)[C@H](O)[C@H](C)O1 [DOXORUBICIN]
- IC50 (HepG2 [9]): 20.2 nM
- IC50 [10]: 578 nM
